Assay results as given in patent publication US20100158808A1, “Altered Activity of Toll-Like Receptors” (priority 2003, published 2010).
One block for each substance: values may come before it.

What was measured:
mice = assay: Experimental shock model (SIRS), D-galactosamine, i.p. injection; type: in vivo; conditions: for Survival in shock model: mice, i.p. with D-galactosamine
Protocol: Experimental shock model. Age- and sex-matched mice were injected with 5 mg of HS, 5 μg of LPS, 5 μg of Limulus anti-LPS factor, 5 mg of chondroitin sulfate, 200 U (−5 mg) heparin, 150 μg of CpG DNA, 1.5 U of elastase, or PBS mixed with 20 mg of D-galactosamine in a total volume of 500 μl of PBS by i.p. injection as previously described (Franks et al. (1991) Infect. Immun. 59:2609). Concentrations of HS and elastase were calculated by weight of lyophilized powder, and the doses used were near the LD50 based on dose-response experiments. In some experiments, the agonist was mixed with 5 or 20 μg of Limulus anti-LPS factor before injection. For some injections, enzymes were boiled at 100° C. for 60 minutes and vortexed vigorously, or preincubated with elastase inhibitor-1 for 4 hours at room temperature and then mixed with D-galactosamine before injection. Mice were monitored every hour for 48 hours and then euthanized.
During sepsis, Gram-negative bacteria shed LPS, which activates TLR4 on cells that then release inflammatory cytokines mediating systemic inflammation and death (Beutler (2000) Curr. Opin. Immunol. 12:20). To determine whether soluble HS can induce a model of systemic inflammatory response syndrome (SIRS) via activation of TLR4 in mice, HS was administered by i.p. injection to TLR4 wild type and mutant mice. This mouse model system has been used to study shock and a sepsis-like syndrome in response to microbial toxins (Galanos et al. (1979) Proc. Natl. Acad. Sci. USA 76:5939). […] Moreover, the observed responses were not due to contamination of HS by LPS, since the HS used was not contaminated with LPS.

TLR4 = biological target: T1, TLR4 (Mus musculus, UniProt Q9JHF9+Q9QUK6); assay: NFκB-luciferase reporter assay in HEK 293 cells stably expressing TLR4, MD2 and/or CD14; type: cell-based, murine; set-up: expressed in transfected cells; host or cells: HEK 293; conditions: HEK 293 cells lacking TLR4 and MD2 or CD14
T1 sequence (Q9QUK6 26-835): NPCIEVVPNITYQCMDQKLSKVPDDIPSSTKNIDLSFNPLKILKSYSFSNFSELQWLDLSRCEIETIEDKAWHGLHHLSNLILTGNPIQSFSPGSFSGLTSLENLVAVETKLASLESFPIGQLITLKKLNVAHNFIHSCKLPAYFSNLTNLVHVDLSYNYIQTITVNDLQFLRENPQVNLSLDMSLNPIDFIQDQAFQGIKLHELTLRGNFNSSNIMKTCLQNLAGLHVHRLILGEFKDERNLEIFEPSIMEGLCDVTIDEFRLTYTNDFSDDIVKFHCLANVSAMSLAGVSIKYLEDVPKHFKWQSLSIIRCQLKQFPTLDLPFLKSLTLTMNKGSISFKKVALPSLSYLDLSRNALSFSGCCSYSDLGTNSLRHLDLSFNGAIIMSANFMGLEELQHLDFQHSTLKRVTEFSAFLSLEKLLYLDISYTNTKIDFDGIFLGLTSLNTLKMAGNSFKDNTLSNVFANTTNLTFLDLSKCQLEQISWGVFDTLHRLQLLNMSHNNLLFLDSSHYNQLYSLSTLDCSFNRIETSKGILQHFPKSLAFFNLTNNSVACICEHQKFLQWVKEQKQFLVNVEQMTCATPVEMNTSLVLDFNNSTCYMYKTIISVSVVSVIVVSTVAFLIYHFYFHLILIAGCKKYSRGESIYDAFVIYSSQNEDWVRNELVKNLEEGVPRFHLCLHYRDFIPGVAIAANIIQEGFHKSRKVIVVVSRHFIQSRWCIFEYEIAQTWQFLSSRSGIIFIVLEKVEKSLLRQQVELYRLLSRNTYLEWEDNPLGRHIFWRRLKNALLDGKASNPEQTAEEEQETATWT
T1 sequence (Q9JHF9 19-160): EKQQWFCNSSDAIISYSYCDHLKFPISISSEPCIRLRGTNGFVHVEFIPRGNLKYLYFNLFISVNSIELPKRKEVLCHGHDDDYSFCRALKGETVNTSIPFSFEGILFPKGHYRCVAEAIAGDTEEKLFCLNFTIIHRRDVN
Protocol: Model ECM environment. Tissue culture plates were coated with ECM as follows. PAEC were seeded into 6-well (3×10^5 cells/well), 24-well (5×10^4 cells/well) or 100 mm (2×10^5 cells) fibronectin-coated tissue culture plates (BD Biosciences, San Jose, Calif.) in DMEM (Invitrogen) containing 10% fetal bovine serum supplemented with penicillin and streptomycin and 4% w/v of Dextran 40. The cell cultures were incubated at 37° C. in 5% CO2 humidified atmosphere for seven days and were supplemented with […] on day three and day five. After 7 days, endothelial cells were washed once with phosphate buffered saline (PBS) and lysed by exposure to 0.5% w/v Triton X-100 and 20 mM NH4OH in PBS (pH 7.4) at 37° C. for 20 minutes (Bonifacino, 1998). The wells were then washed 4 times with PBS (pH 7.4) and inspected microscopically to ensure removal of the cells. Plates were used immediately or were stored in PBS (pH 7.4) with […] at 4° C.
HEK 293 cells were stably transfected with the TLR4 and MD2 or CD14 expression plasmids using Superfect (Qiagen, Valencia, Calif.) following the manufacturer's instructions. HEK 293 cells expressing TLR4 and MD2 or CD14 were obtained by culturing the transfected cells with appropriate antibiotic selection medium, and were cloned by limiting dilution in the selection medium. HEK 293 cells expressing TLR4, MD2 and CD14 were generated by transfecting HEK 293 cells that expressed TLR4 and MD2 with the CD14 expression plasmid, and selecting clones using appropriate antibiotic containing medium. Cell lines expressing TLR4 and MD2 and/or CD14 were then maintained in DMEM supplemented with 10% fetal bovine serum and the appropriate selection antibiotics. Control cell lines were transfected with empty expression vectors and incubated in selection conditions as described above. Selected clones were tested for cell surface expression of the TLR4/MD2 complex and CD14 by flow cytometry using monoclonal antibodies specific for the TLR4/MD2 complex or CD14.
NFκB-luciferase reporter assays. Activation of NFκB was measured using a NFκB-luciferase reporter assay. HEK 293 cell lines stably expressing TLR4, MD2 and/or CD14, or control cells were seeded into 24 well tissue culture plates (2×10^5 cells/well) in 1.0 ml DMEM containing 10% fetal bovine serum and penicillin and streptomycin. The cells were allowed to adhere to the culture wells at 37° C. overnight and were then transfected with […] NFκB-firefly-luciferase using Superfect Transfection Reagent (Qiagen). Following transfection, the cells were washed once with phosphate buffered saline and cultured for 24 hours at 37° C. in 1.0 ml DMEM containing 0.5% fetal bovine serum. After various treatments, the culture medium was aspirated and the cells were washed once with PBS. The cells were lysed in […] Passive Lysis Buffer (Promega) with rocking at room temperature for 15 minutes. Renilla- and Firefly-luciferase were assayed simultaneously using the Dual-Luciferase Reporter Assay System (Promega) and a TD-20/20 luminometer (Turner Designs, Sunnyvale, Calif.). Activation of NFκB was reported as a ratio of the firefly luciferase activity to the constitutively expressed Renilla luciferase internal control, and is the mean of triplicate wells.
To determine whether and under what conditions HS stimulates TLR4, various combinations of TLR4, MD2 and CD14, components of the putative TLR4 receptor complex, were stably expressed in HEK 293 cells and the effect of HS on TLR4 signaling in the transfected cells was examined (FIG. 1). The HEK 293 cells expressing receptor components were transiently transfected with a NFκB-firefly luciferase reporter construct along with a Renilla-luciferase internal control reporter construct. […]

TLR4/MD2 complex = biological target: T2, TLR4/MD2 complex (Mus musculus, UniProt Q9JHF9+Q9QUK6); assay: Cell surface expression of TLR4/MD2 in HEK/TLR4(+) cells by flow cytometry; type: cell-based, murine
T2 construct: expressed in transfected cells; host or cells: HEK 293 clone HEK/TLR4(+)
T2 sequence (Q9QUK6 26-835): T1 sequence (Q9QUK6 26-835)
T2 sequence (Q9JHF9 19-160): T1 sequence (Q9JHF9 19-160)
Protocol: FIG. 2A is a graph plotting the level of reporter activity in HEK/TLR4(+) cells transfected with NFκB- and control-luciferase reporter plasmids and then stimulated with intact HS or LPS, or with HS or LPS that had been treated with nitrous acid (HNO2) at pH 4.0 or pH 1.5. Controls were treated with PBS vehicle. […] FIG. 2C is a graph showing the effect of PBS, HS, depolymerized HS (nitrous acid, pH 1.5), and recombinant human IL-1α on cell surface expression of TLR4/MD2 in HEK/TLR4(+) cells. Expression of TLR4 on the cell surface was determined by flow cytometry using a monoclonal antibody specific to the TLR4/MD2 complex. Values are the mean of triplicate wells and are representative of three separate experiments.
To determine whether the effect of HS occurred through specific action on TLR4, surface expression of the TLR4/MD2 complex on cells treated with HS was examined. […] Thus, HEK/TLR4(+) cells responded to HS by activating NFκB and mobilizing receptor complexes.

Substance: Boc-Ala-Ala-Ala-NHO-Bz [elastase inhibitor-1]
Reduction of the death rate after elastase injection (mice; elastase preincubated with elastase inhibitor-1 for 4 hours): 50%

Substance: chondroitin sulfate
Survival in shock model (mice): all but one mouse

Substance: heparin
Survival in shock model (mice): survived

Activation of NFκB-luciferase reporter (TLR4): activated
Change in surface expression of TLR4/MD2 (TLR4/MD2 complex): did not change
Substance: recombinant human IL-1α: recombinant human IL-1α, activates NFκB via the IL-1 receptor
